Reference: patent publication US20240158383A1, “RIBONUCLEOTIDE REDUCTASE (RNR) INHIBITORS AND USES THEREOF” (Boundless Bio, Inc., priority 2021, published 2024)

Key:
[1] = system: pCHK1 (S345) in Colo320 DM cells; experiment: CHK1 cellular activity (phospho-CHK1 AlphaLisa); format: cell-based, human; conditions: Homo sapiens, COLO 320DM, 16 h, compound overnight (approximately 16 hours)
Description: Phospho-CHK1 cellular activity was measured as a marker of replication stress which is a consequence of RNR inhibition.
Colo320 DM cells (ATCC #CCL-220, derived from human colorectal adenocarcinoma, Dukes' type C) were seeded on a 96-well cell culture treated assay plate at a density of 50,000 cells/well in 200 μL of RPMI-1640 media supplemented with 10% Fetal Bovine Serum and incubated at 37 degrees Celsius overnight. The following day, test compound dilutions were added directly to the plated cells by a Tecan digital dispenser to a final DMSO concentration of <0.5% and incubated at 37 degrees Celsius overnight (approximately 16 hours). The following day all culture media is removed from the cells. 75 μL of 1× AlphaLisa lysis buffer is added to each well and plates are agitated on a shaker for 30 minutes at room temperature. The lysis of cells and detection of pCHK1 (S345) are performed with reagents contained within the AlphaLisa Sure Fire assay kit (Perkin Elmer #ALSU-PCHK1-A) according to the manufacturer's instructions. 10 μL of each lysate was then transferred to a white, 384-well assay plate (Perkin Elmer #6008280). 5 μL of Acceptor mix was then added to each well of lysate in the white, 384-well assay plate and incubated in the dark at room temperature for 60 minutes. 5 μL of Donor mix was then added to each well of the white, 384-well assay plate in subdued light and incubated at room temperature for 60 minutes. Plates are read on an Alpha Technology-compatible plate reader using standard AlphaLisa settings.

RNR (RNR1:RNR2) = RNR (RNR1:RNR2) (Homo sapiens (Human), UniProt P23921+P31350); experiment: RNR enzyme activity, rapid-fire mass spectrometry (RFMS) assay; format: biochemical; conditions: [RNR] 50 nM, 1:1 RNR1:RNR2, [CDP] 5 μM, [ATP] 1 mM, 37° C., 45 min
Sequence of RNR (RNR1:RNR2) (P23921 whole entry): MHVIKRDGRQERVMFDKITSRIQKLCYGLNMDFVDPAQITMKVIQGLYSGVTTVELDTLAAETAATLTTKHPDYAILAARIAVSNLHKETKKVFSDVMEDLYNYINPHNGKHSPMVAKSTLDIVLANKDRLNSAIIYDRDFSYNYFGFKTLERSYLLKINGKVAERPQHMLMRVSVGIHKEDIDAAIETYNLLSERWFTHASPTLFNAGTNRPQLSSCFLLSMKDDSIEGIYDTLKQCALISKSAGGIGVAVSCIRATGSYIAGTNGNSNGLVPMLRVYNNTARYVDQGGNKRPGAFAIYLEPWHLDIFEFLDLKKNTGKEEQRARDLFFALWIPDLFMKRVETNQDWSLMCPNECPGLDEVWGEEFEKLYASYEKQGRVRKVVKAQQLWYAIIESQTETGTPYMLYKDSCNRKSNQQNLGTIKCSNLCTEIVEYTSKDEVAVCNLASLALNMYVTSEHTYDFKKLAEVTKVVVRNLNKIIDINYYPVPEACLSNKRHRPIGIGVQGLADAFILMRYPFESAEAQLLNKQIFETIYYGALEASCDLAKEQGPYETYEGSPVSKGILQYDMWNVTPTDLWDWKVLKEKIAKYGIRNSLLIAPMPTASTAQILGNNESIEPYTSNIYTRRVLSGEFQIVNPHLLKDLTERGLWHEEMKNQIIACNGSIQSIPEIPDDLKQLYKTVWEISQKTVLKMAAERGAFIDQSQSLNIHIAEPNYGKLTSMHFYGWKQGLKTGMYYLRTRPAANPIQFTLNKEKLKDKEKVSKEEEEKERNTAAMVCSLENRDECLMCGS
Sequence of RNR (RNR1:RNR2) (P31350 whole entry): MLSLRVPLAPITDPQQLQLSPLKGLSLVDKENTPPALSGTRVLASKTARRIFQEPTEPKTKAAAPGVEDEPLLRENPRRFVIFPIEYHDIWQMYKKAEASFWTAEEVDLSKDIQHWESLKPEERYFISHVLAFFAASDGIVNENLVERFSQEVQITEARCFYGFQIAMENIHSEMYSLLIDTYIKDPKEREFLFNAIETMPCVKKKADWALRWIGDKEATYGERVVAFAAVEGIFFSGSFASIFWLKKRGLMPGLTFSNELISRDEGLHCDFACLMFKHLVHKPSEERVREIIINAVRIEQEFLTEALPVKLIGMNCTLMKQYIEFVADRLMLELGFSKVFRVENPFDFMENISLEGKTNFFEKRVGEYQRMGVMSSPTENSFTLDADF
Description: A rapid-fire mass spectrometry (RFMS) assay was used to assess RNR enzyme activity using a 384 well plate and a robotic platform.
The plate layout included two validated reference compounds (Triapine (3-AP) and Hydroxyurea (HU)): • A dose response in duplicate; top concentration: 5 μM (3-AP) and 250 μM (HU), semi-log • dilutions. • Spike wells in triplicate randomly spotted at four concentrations: • 250 μM, 100 μM, 30 μM and 2 μM for HU • 5 μM, 2 μM, 0.6 μM and 0.04 μM for 3-AP
First, the multidrop pipes were saturated for 30 minutes with enzymatic solution. Then 30 μL of Stop solution was distributed in column 24. Next, 15 μL of enzyme was distributed in column 1 to 24. Next, a pre-incubation step of 15 minutes at room temperature occurred, followed by distribution of 15 μL of substrate solution (column 1 to 24). Next, the plate was incubated for 45 minutes at 37° C. 30 μL of Stop solution was distributed to columns 1 to 23.
The final parameters for the enzyme reactions were: • Incubation: 37° C., 45 min • [CDP]: 5 μM; [ATP]: 1 mM; [NADPH]: No • [RNR]final: 50 nM with 1:1 (RNR1:RNR2) ratio • Final volume: 30 μL • Stop solution: 6% HCOOH containing 2 μM of 15
The compounds were screened at concentrations from 10 nM to 30 μM.

Cc1ccc(F)c([C@@H](C)[C@H](NS(=O)(=O)c2ccc(F)c(C#N)c2)c2nn[nH]n2)c1C [Example 37, 3-cyano-4-fluoro-N-((1S,2R)-2-(6-fluoro-2,3-dimethylphenyl)-1-(2H-tetrazol-5-yl)propyl)benzensulfonamide]
IC50 [1]: 50 to 100 µM
IC50 (RNR (RNR1:RNR2)): 1 to 5 µM

Cc1ccc(F)c([C@@H](C)[C@H](NS(=O)(=O)c2ccc(F)c(C(N)=O)c2)c2nn[nH]n2)c1C [Example 38, 2-fluoro-5-(N-((1S,2R)-2-(6-fluoro-2,3-dimethylphenyl)-1-(2H-tetrazol-5-yl)propyl)sulfamoyl)benzamide]
IC50 [1]: 50 to 100 µM
IC50 (RNR (RNR1:RNR2)): 1 to 5 µM

Cc1ccc(F)c([C@@H](C)[C@H](NS(=O)(=O)c2ccc(Cl)cc2Cl)c2nn[nH]n2)c1C [Example 39, 2,4-dichloro-N-((1S,2R)-2-(6-fluoro-2,3-dimethylphenyl)-1-(2H-tetrazol-5-yl)propyl)benzenesulfonamide]
IC50 [1]: 10 to 30 µM
IC50 (RNR (RNR1:RNR2)): 0.1 to 1 µM

Cc1ccc(F)c([C@@H](C)[C@H](NS(=O)(=O)c2cc(Cl)c(Cl)cc2F)c2nn[nH]n2)c1C [Example 40, 4,5-dichloro-2-fluoro-N-((1S,2R)-2-(6-fluoro-2,3-dimethylphenyl)-1-(2H-tetrazol-5-yl)propyl)benzenesulfonamide]
IC50 [1]: 50 to 100 µM
IC50 (RNR (RNR1:RNR2)): 1 to 5 µM

Cc1ccc(F)c([C@@H](C)[C@H](NS(=O)(=O)c2ccc(Cl)cc2O)c2nn[nH]n2)c1C [Example 41, 4-chloro-N-((1S,2R)-2-(6-fluoro-2,3-dimethylphenyl)-1-(2H-tetrazol-5-yl)propyl)-2-hydroxybenzenesulfonamide]
IC50 [1]: 50 to 100 µM
IC50 (RNR (RNR1:RNR2)): 0.1 to 1 µM

Cc1cc(S(=O)(=O)N[C@H](c2nn[nH]n2)[C@H](C)c2c(F)ccc(C)c2C)c(F)cc1Cl [Example 42]
IC50 [1]: 50 to 100 µM
IC50 (RNR (RNR1:RNR2)): 1 to 5 µM

Cc1ccc(F)c([C@@H](C)[C@H](NS(=O)(=O)c2cn(C)nc2C)c2nn[nH]n2)c1C [Example 43]
IC50 [1]: 50 to 100 µM
IC50 (RNR (RNR1:RNR2)): 1 to 5 µM

Cc1ccc(F)c([C@@H](C)[C@H](NS(=O)(=O)c2cc(Cl)ccc2F)c2nn[nH]n2)c1C [Example 44]
IC50 [1]: 50 to 100 µM
IC50 (RNR (RNR1:RNR2)): 1 to 5 µM

Cc1ccc(F)c([C@@H](C)[C@H](NS(=O)(=O)c2cc(Cl)ccc2Cl)c2nn[nH]n2)c1C [Example 45]
IC50 [1]: 50 to 100 µM
IC50 (RNR (RNR1:RNR2)): 5 to 30 µM

Cc1ccc(F)c([C@@H](C)[C@H](NS(=O)(=O)c2ccc(Cl)c3nonc23)c2nn[nH]n2)c1C [Example 46]
IC50 [1]: 50 to 100 µM
IC50 (RNR (RNR1:RNR2)): 0.1 to 1 µM

Cc1ccc(F)c([C@@H](C)[C@H](NS(=O)(=O)c2cccc3[nH]c(=O)ccc23)c2nn[nH]n2)c1C [Example 47]
IC50 [1]: 50 to 100 µM
IC50 (RNR (RNR1:RNR2)): 0.1 to 1 µM

Cc1cc(S(=O)(=O)N[C@H](c2nn[nH]n2)[C@H](C)c2c(F)ccc(C)c2C)ccc1Cl [Example 48]
IC50 [1]: 10 to 30 µM
IC50 (RNR (RNR1:RNR2)): 0.1 to 1 µM

Cc1ccc(F)c([C@@H](C)[C@H](NS(=O)(=O)c2ccc(Cl)c(F)c2)c2nn[nH]n2)c1C [Example 49]
IC50 [1]: 10 to 30 µM
IC50 (RNR (RNR1:RNR2)): 0.1 to 1 µM

Cc1ccc(F)c([C@@H](C)[C@H](NS(=O)(=O)c2ccc(Cl)cc2C(F)F)c2nn[nH]n2)c1C [Example 50, 4-chloro-2-(difluoromethyl)-N-((1S,2R)-2-(6-fluoro-2,3-dimethylphenyl)-1-(2H-tetrazol-5-yl)propyl)benzenesulfonamide]
IC50 [1]: 30 to 50 µM
IC50 (RNR (RNR1:RNR2)): 0.1 to 1 µM

Cc1ccc(Cl)cc1S(=O)(=O)N[C@H](c1nn[nH]n1)[C@H](C)c1c(F)ccc(C)c1C [Example 53, 5-chloro-N-((1S,2R)-2-(6-fluoro-2,3-dimethylphenyl)-1-(2H-tetrazol-5-yl)propyl)-2-methylbenzenesulfonamide]
IC50 [1]: 50 to 100 µM
IC50 (RNR (RNR1:RNR2)): 5 to 30 µM

[2H]C([2H])([2H])Oc1cc(Cl)ccc1S(=O)(=O)N[C@H](c1nn[nH]n1)[C@H](C)c1c(F)ccc(C)c1C [Example 54, 4-chloro-N-((1S,2R)-2-(6-fluoro-2,3-dimethylphenyl)-1-(2H-tetrazol-5-yl)propyl)-2-(methoxy-d3)benzenesulfonamide]
IC50 [1]: 10 to 30 µM
IC50 (RNR (RNR1:RNR2)): ≤ 0.1 µM

Cc1ccc(F)c([C@@H](C)[C@H](NS(=O)(=O)c2ccc(Cl)c(C)c2Cl)c2nn[nH]n2)c1C [Example 55, 2,4-dichloro-N-((1S,2R)-2-(6-fluoro-2,3-dimethylphenyl)-1-(2H-tetrazol-5-yl)propyl)-3-methylbenzenesulfonamide]
IC50 [1]: 10 to 30 µM
IC50 (RNR (RNR1:RNR2)): ≤ 0.1 µM

Cc1ccc(F)c([C@@H](C)[C@H](NS(=O)(=O)c2c(F)cc(Cl)cc2F)c2nn[nH]n2)c1C [Example 56, 4-chloro-2,6-difluoro-N-((1S,2R)-2-(6-fluoro-2,3-dimethylphenyl)-1-(2H-tetrazol-5-yl)propyl)benzenesulfonamide]
IC50 [1]: 50 to 100 µM
IC50 (RNR (RNR1:RNR2)): 0.1 to 1 µM

Cc1ccc(F)c([C@@H](C)[C@H](NS(=O)(=O)c2ccc(Cl)c([C@@H](O)C(=O)N(C)C)c2)c2nn[nH]n2)c1C [Example 57, (R)-2-(2-chloro-5-(N-((1S,2R)-2-(6-fluoro-2,3-dimethylphenyl)-1-(2H-tetrazol-5-yl)propyl)sulfamoyl)phenyl)-2-hydroxy-N,N-dimethylacetamide]
IC50 [1]: 50 to 100 µM
IC50 (RNR (RNR1:RNR2)): 0.1 to 1 µM

Cc1ccc(F)c([C@@H](C)[C@H](NS(=O)(=O)c2ccc(Cl)c([C@H](O)C(=O)N(C)C)c2)c2nn[nH]n2)c1C [Example 58, (S)-2-(2-chloro-5-(N-((1S,2R)-2-(6-fluoro-2,3-dimethylphenyl)-1-(2H-tetrazol-5-yl)propyl)sulfamoyl)phenyl)-2-hydroxy-N,N-dimethylacetamide]
IC50 [1]: 50 to 100 µM
IC50 (RNR (RNR1:RNR2)): 0.1 to 1 µM

Cc1ccc(F)c([C@@H](C)[C@H](NS(=O)(=O)c2ccc(Cl)c(C(C)(O)C(=O)N(C)C)c2)c2nn[nH]n2)c1C (stereo partly drawn) [Example 59, 2-(2-chloro-5-(N-((1S,2R)-2-(6-fluoro-2,3-dimethylphenyl)-1-(2H-tetrazol-5-yl)propyl)sulfamoyl)phenyl)-2-hydroxy-N,N-dimethylpropanamide]
IC50 [1]: 50 to 100 µM
IC50 (RNR (RNR1:RNR2)): 0.1 to 1 µM

Cc1ccc(Cl)c(S(=O)(=O)N[C@H](c2nn[nH]n2)[C@H](C)c2c(F)ccc(C)c2C)c1 [Example 60, 2-chloro-N-((1S,2R)-2-(6-fluoro-2,3-dimethylphenyl)-1-(2H-tetrazol-5-yl)propyl)-5-methylbenzenesulfonamide]
IC50 [1]: 50 to 100 µM
IC50 (RNR (RNR1:RNR2)): 1 to 5 µM

Cc1ccc(F)c([C@@H](C)[C@H](NS(=O)(=O)c2ccc(Cl)cc2C2CC2)c2nn[nH]n2)c1C [Example 61, 4-chloro-2-cyclopropyl-N-((1S,2R)-2-(6-fluoro-2,3-dimethylphenyl)-1-(2H-tetrazol-5-yl)propyl)benzenesulfonamide]
IC50 [1]: 10 to 30 µM
IC50 (RNR (RNR1:RNR2)): 0.1 to 1 µM

COc1nc(Cl)ccc1S(=O)(=O)N[C@H](c1nn[nH]n1)[C@H](C)c1c(F)ccc(C)c1C [Example 62, 6-chloro-N-((1S,2R)-2-(6-fluoro-2,3-dimethylphenyl)-1-(2H-tetrazol-5-yl)propyl)-2-methoxypyridine-3-sulfonamide]
IC50 [1]: 10 to 30 µM
IC50 (RNR (RNR1:RNR2)): ≤ 0.1 µM

COc1cc(C#N)ccc1S(=O)(=O)N[C@H](c1nn[nH]n1)[C@H](C)c1c(F)ccc(C)c1C [Example 64, 4-cyano-N-((1S,2R)-2-(6-fluoro-2,3-dimethylphenyl)-1-(2H-tetrazol-5-yl)propyl)-2-methoxybenzenesulfonamide]
IC50 [1]: 50 to 100 µM
IC50 (RNR (RNR1:RNR2)): 0.1 to 1 µM

Cc1ccc(F)c([C@@H](C)[C@H](NS(=O)(=O)c2ccc(Cl)c(C(F)(F)C(=O)N(C)C)c2)c2nn[nH]n2)c1C [Example 72, 2-(2-chloro-5-(N-((1S,2R)-2-(6-fluoro-2,3-dimethylphenyl)-1-(2H-tetrazol-5-yl)propyl)sulfamoyl)phenyl)-2,2-difluoro-N,N-dimethylacetamide]
IC50 [1]: 50 to 100 µM
IC50 (RNR (RNR1:RNR2)): 0.1 to 1 µM

COc1c(S(=O)(=O)N[C@H](c2nn[nH]n2)[C@H](C)c2c(F)ccc(C)c2C)ccc(Cl)c1F [Example 73, 4-chloro-3-fluoro-N-((1S,2R)-2-(6-fluoro-2,3-dimethylphenyl)-1-(2H-tetrazol-5-yl)propyl)-2-methoxybenzenesulfonamide]
IC50 [1]: 10 to 30 µM
IC50 (RNR (RNR1:RNR2)): 0.1 to 1 µM
